# Values joined by “and” are separate entries in the source; they are usually repeats but may differ in a detail not shown here. Identical values can stand only once.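 48-hour exposure; five concentrations; linearly interpolated endpoints. GI50 = concentration required for 50% inhibition of growth. TGI is the concentration that stops growth completely.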
# Tested on: MDA-MB-231 breast
# Test: NCI anticancer screen, dose series, 48 h
SMILES,GI50 [µM],TGI [µM]
CC(=O)N[C@@H](Cc1ccc(OP(=O)(O)O)cc1)C(=O)N[C@H]1CCC(=O)N2CCC[C@@H](C(=O)Nc3cccc4ccccc34)N2C1=O,> 25,> 25

# Tested on: SF-295 CNS
# Test: NCI anticancer screen, dose series, 48 h
SMILES,TGI [µM],GI50 [µM]
C[C@@]1(O)CC[C@]2(C)C3CCCC3[C@H]12 (some centres not stated),> 100,
COc1cc(-c2nn(-c3cccc(NC(=O)c4ccccc4)c3)cc2-c2ccncc2)ccc1Cl,1.44,0.315
Cc1cc(Nc2ccc(C)c(Cl)c2)n2nc(C(F)(F)F)nc2n1,74,21.2
COc1ccc(Cn2c(Br)c3c(c2Br)-c2nc(N)sc2CC3)cc1,10.4,3.07
CC(=O)[O-].CC(=O)[O-].O=C(N/N=C/c1cc(Cl)cc(Cl)c1O)c1ccncc1.[Cu+2],> 100,
CN(C)CC(O)c1ccc(/C=C/c2ccc(Cl)cc2)cc1 (configuration not stated),3,1.53
Cc1nnc2ccnn2c1C,> 100,> 100
CCOC(=O)C1=C(C)N(NC(=O)Nc2ccccc2)C2(N)N(NC(=O)Nc3ccccc3)C(C)=C(C(=O)OCC)C12C(=O)OCC (configuration not stated),> 100,
O=C(O)CSc1n[nH]c(-c2ccccc2O)n1,> 100,
Cc1nc(-c2nc(C)c(C(=O)NNC(=O)C[n+]3ccccc3)s2)sc1C(=O)NNC(=O)C[n+]1ccccc1,> 100,
CN(C)C=Nc1nc(=O)n(C2CCC(CO)O2)cc1F (configuration not stated),> 100,
COc1cc2c(cc1OC)-c1cc(OC)c(OC)cc1C(CN(C)C)C2 (configuration not stated),> 10,> 10
O=c1[nH]c(-c2ccccc2)nc2cc(Cl)ccc12,> 100,
Cc1ccc(S(=O)(=O)N2CCC2c2ccccc2)cc1 (configuration not stated),> 100,
CCCOc1nc(N)c2cnn(C3CCCCO3)c2n1 (configuration not stated),> 100,
C/C(CN1C(=O)c2ccccc2C1=O)=N\NS(=O)(=O)c1ccc(Cl)cc1,> 100,
COc1ccc(/C=C/COC(C)=O)cc1OC,> 100,
Cc1ccc(-c2nc(N3CCNCC3)c3oc(-c4ccc(C)cc4)nc3n2)cc1,52.6,12.1

SMILES,TGI [µM],GI50 [µM]
[O-][Cl+3]([O-])([O-])[O-].[O]=[Ru]=[O].c1ccc(-c2ccccn2)nc1.c1ccc(-c2ccccn2)nc1,> 100,60.2
Cc1ccc(NC2=C3CCCCC3OC2=O)cc1 (configuration not stated),> 100,75
O=C1C(C(Nc2ccccc2)c2ccccc2)=C([O-])c2ccccc21.O=C1C(C(Nc2ccccc2)c2ccccc2)=C([O-])c2ccccc21.[Cu+2] (configuration not stated),> 100,48.2
CN(C)CC1CCC/C1=N/OC(=O)c1ccccc1 (configuration not stated),> 100,
CCOC(=O)C1Sc2ccccc2N=C1C (configuration not stated),> 100,
COC1=CC(=O)C(C2(OC(C)C)OC(=O)C(Cl)=C2Cl)=CC1=O (configuration not stated),> 100,
O=C(NC1C=CCC2C(=O)N(c3ccccc3)C(=O)C12)OCc1ccccc1 (configuration not stated),> 100,
CCC(C)SC1SCC2C(=O)N(C)C3(CC3C)C(=O)OCC(NC(=O)c3nc4ccccc4cc3O)C(=O)NC(C)C(=O)N(C)C1C(=O)N(C)C1(CC1C)C(=O)OCC(NC(=O)c1nc3ccccc3cc1O)C(=O)NC(C)C(=O)N2C (configuration not stated),0.00153,
Cc1[cH-]c(=O)n(-c2ccccc2)n1.[Au+].[Au].c1ccc([PH+](c2ccccc2)c2ccccc2)cc1.c1ccc([PH+](c2ccccc2)c2ccccc2)cc1,35.2,15.1
CC1(C)CC(c2c[nH]c3ccccc23)=CC2=Nc3ccccc3C21O (configuration not stated),> 100,
CN1C(=O)C(=O)N2c3ccc(Cl)cc3C3(c4ccccc4)N=CC12O3 (configuration not stated),23.2,
COc1ccc(CN2C(=O)C(Cl)=C(Nc3cccc(C(F)(F)F)c3)C2=O)cc1,65.3,3.19
O=[N+]([O-])c1cc([N+](=O)[O-])c(C(F)(F)F)cc1NN=C(c1ccc(O)cc1)c1ccc(O)cc1,3.81,1.57
N#CCCC[Si]12OCCN(CCO1)CCO2,> 100,
NC(=S)N/N=C\c1nccc2c(C(F)(F)F)cccc12,10.3,0.341
CC(=O)N[C@@H](Cc1ccc(OP(=O)(O)O)cc1)C(=O)N[C@H]1CCC(=O)N2CCC[C@@H](C(=O)Nc3cccc4ccccc34)N2C1=O,> 25,> 25
O=C(/C=C/c1c(O)ccc2ccccc12)c1ccc([N+](=O)[O-])cc1,> 100,

# Tested on: SF-539 CNS
# Test: NCI anticancer screen, dose series, 48 h
SMILES,TGI [µM],GI50
C[C@@]1(O)CC[C@]2(C)C3CCCC3[C@H]12 (some centres not stated),> 100,
COc1cc(-c2nn(-c3cccc(NC(=O)c4ccccc4)c3)cc2-c2ccncc2)ccc1Cl,2.65,0.413 µM
Cc1cc(Nc2ccc(C)c(Cl)c2)n2nc(C(F)(F)F)nc2n1,39,19.1 µM
COc1ccc(Cn2c(Br)c3c(c2Br)-c2nc(N)sc2CC3)cc1,13.5,3.48 µM
CC(=O)[O-].CC(=O)[O-].O=C(N/N=C/c1cc(Cl)cc(Cl)c1O)c1ccncc1.[Cu+2],> 100,
C#Cc1cccc(Nc2nc3cc([N+](=O)[O-])ccc3nc2Nc2ccc(O)cc2)c1,3.29,1.75 µM
O=C(Nc1nc(=S)[nH][nH]1)C(=O)C(C(=O)c1ccc2ccccc2c1)C1OC(=O)c2ccccc21 (configuration not stated),25.2,
CN(C)CC(O)c1ccc(/C=C/c2ccc(Cl)cc2)cc1 (configuration not stated),3.84,1.82 µM
CCOC(=O)C1=C(C)N(NC(=O)Nc2ccccc2)C2(N)N(NC(=O)Nc3ccccc3)C(C)=C(C(=O)OCC)C12C(=O)OCC (configuration not stated),53.4,
O=C(O)CSc1n[nH]c(-c2ccccc2O)n1,> 100,
Cc1nc(-c2nc(C)c(C(=O)NNC(=O)C[n+]3ccccc3)s2)sc1C(=O)NNC(=O)C[n+]1ccccc1,> 100,
COc1cc2c(cc1OC)-c1cc(OC)c(OC)cc1C(CN(C)C)C2 (configuration not stated),> 10,> 10 µM
O=c1[nH]c(-c2ccccc2)nc2cc(Cl)ccc12,> 100,
Cc1ccc(S(=O)(=O)N2CCC2c2ccccc2)cc1 (configuration not stated),> 100,
CCCOc1nc(N)c2cnn(C3CCCCO3)c2n1 (configuration not stated),> 100,
C/C(CN1C(=O)c2ccccc2C1=O)=N\NS(=O)(=O)c1ccc(Cl)cc1,> 100,
CC(C)(C)[Si](C)(C)OC1[C@@H](O[Si](C)(C)C(C)(C)C)[C@@H](CNC(=O)NC(=O)C(F)(F)F)O[C@H]1n1cnc2c(NC(=O)Nc3ccccc3)ncnc21 (some centres not stated),13.2,6.74 µM
COc1ccc(/C=C/COC(C)=O)cc1OC,> 100,

SMILES,TGI [µM],GI50
[O-][Cl+3]([O-])([O-])[O-].[O]=[Ru]=[O].c1ccc(-c2ccccn2)nc1.c1ccc(-c2ccccn2)nc1,> 100,> 100 µM
Cc1ccc(NC2=C3CCCCC3OC2=O)cc1 (configuration not stated),> 100,> 100 µM
O=C1C(C(Nc2ccccc2)c2ccccc2)=C([O-])c2ccccc21.O=C1C(C(Nc2ccccc2)c2ccccc2)=C([O-])c2ccccc21.[Cu+2] (configuration not stated),> 100,30.6 µM
CN(C)CC1CCC/C1=N/OC(=O)c1ccccc1 (configuration not stated),> 100,
CCOC(=O)C1Sc2ccccc2N=C1C (configuration not stated),> 100,
COC1=CC(=O)C(C2(OC(C)C)OC(=O)C(Cl)=C2Cl)=CC1=O (configuration not stated),> 100,
O=C(NC1C=CCC2C(=O)N(c3ccccc3)C(=O)C12)OCc1ccccc1 (configuration not stated),> 100,
CCC(C)SC1SCC2C(=O)N(C)C3(CC3C)C(=O)OCC(NC(=O)c3nc4ccccc4cc3O)C(=O)NC(C)C(=O)N(C)C1C(=O)N(C)C1(CC1C)C(=O)OCC(NC(=O)c1nc3ccccc3cc1O)C(=O)NC(C)C(=O)N2C (configuration not stated),0.000317,
Cc1[cH-]c(=O)n(-c2ccccc2)n1.[Au+].[Au].c1ccc([PH+](c2ccccc2)c2ccccc2)cc1.c1ccc([PH+](c2ccccc2)c2ccccc2)cc1,33.4,2.38 µM and 10.4 µM
CC1(C)CC(c2c[nH]c3ccccc23)=CC2=Nc3ccccc3C21O (configuration not stated),> 100,
CN1C(=O)C(=O)N2c3ccc(Cl)cc3C3(c4ccccc4)N=CC12O3 (configuration not stated),14.6,
COc1ccc(CN2C(=O)C(Cl)=C(Nc3cccc(C(F)(F)F)c3)C2=O)cc1,12,1.77 µM
O=[N+]([O-])c1cc([N+](=O)[O-])c(C(F)(F)F)cc1NN=C(c1ccc(O)cc1)c1ccc(O)cc1,4.45,2.01 µM
N#CCCC[Si]12OCCN(CCO1)CCO2,> 100,
NC(=S)N/N=C\c1nccc2c(C(F)(F)F)cccc12,0.857,0.243 µM
CC(=O)N[C@@H](Cc1ccc(OP(=O)(O)O)cc1)C(=O)N[C@H]1CCC(=O)N2CCC[C@@H](C(=O)Nc3cccc4ccccc34)N2C1=O,> 25,> 25 µM
O=C(/C=C/c1c(O)ccc2ccccc12)c1ccc([N+](=O)[O-])cc1,> 90.8,
